Test results reported in the supplement of paper PMC5579334.

Key:
YST-1 = experiment: relative IC50 (inflection point of fitted dose-response curve, CellTiter-Glo viability, 72 h; top asymptote may be below 50% inhibition); higher = less potent
Method in brief: (§1)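 Viability of MPNST cell lines and primary human Schwann cells was read as CellTiter-Glo ATP luminescence after 72 h at 37 °C, 5% CO2, in 384-well plates seeded with 750–1000 cells per well. Each compound had been preprinted at five concentrations in 10-fold steps. Signals were scaled between vehicle and positive-control wells, duplicates averaged where present, and fitted with four-parameter logistic curves. Drug sensitivity score and relative IC50 (censored at the top concentration) come from those fits, and percent inhibition is taken at the top concentration.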

HS-Sch-2 = experiment: as above
Method in brief: as §1

HS-PSS [1] = experiment: as above
Method in brief: as §1

HS-PSS [2] = experiment: relative IC50 (inflection point of fitted dose-response curve, CellTox-Green cytotoxicity, 72 h; top asymptote may be below 50%); higher = less potent
Method in brief: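 MPNST cell lines and primary human Schwann cells were grown for 72 h at 37 °C in 384-well plates containing five 10-fold compound dilutions. CellTox-Green, added before seeding at a final 1:1000 dilution, gave fluorescence from DNA released by disrupted cells, and signals were scaled to vehicle and positive-control wells. Curves were fitted with a four-parameter logistic model. Drug sensitivity score and relative IC50 come from these fits, with IC50 censored at the top concentration.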

SMILES | relative IC50 (YST-1) [nM] | relative IC50 (HS-Sch-2) [nM] | relative IC50 (HS-PSS [1]) [nM] | relative IC50 (HS-PSS [2]) [µM]
COc1ccc(C[C@H](NC(=O)[C@H](C)NC(=O)CN2CCOCC2)C(=O)N[C@@H](Cc2ccccc2)C(=O)[C@@]2(C)CO2)cc1 [ONX-0914] | 309 | 158 | 335 | 0.307
CNC(=O)c1ccc(C)c(-n2c(C)cc(OCc3ccc(F)cc3F)c(Br)c2=O)c1 | 44.6 | > 1000 | > 1000 | > 1
CC(=O)O[C@]1(C(C)=O)CC[C@H]2[C@@H]3C=C(C)C4=CC(=O)CC[C@]4(C)[C@H]3CC[C@@]21C [Megestrol acetate] | > 10000 | > 10000 | > 10000 | > 10
Cc1cc(C)c(CNC(=O)c2cc(-c3ccc(CN4CCOCC4)cc3)cc3c2cnn3C2CCCC2)c(=O)[nH]1 [EPZ-5687] | > 10000 | > 10000 | > 10000 | > 10
CCNC(=O)C[C@@H]1N=C(c2ccc(Cl)cc2)c2cc(OC)ccc2-n2c(C)nnc21 | 501 | 624 | 709 | > 10
Cc1cc(-c2ncc(CC(=O)Nc3ccc(-c4cnccn4)cn3)cc2C)ccn1 [NVP-LGK974] | > 10000 | 2920 | 1970 | > 10
COc1cc(C(=O)O)ccc1NC(=O)[C@@H]1N[C@@H](CC(C)(C)C)[C@](C#N)(c2ccc(Cl)cc2F)[C@H]1c1cccc(Cl)c1F [Idasanutlin] | 62 | > 10000 | 178 | > 10
CC[C@H](C)C(=O)O[C@H]1C[C@@H](C)C=C2C=C[C@H](C)[C@H](CC[C@@H]3C[C@@H](O)CC(=O)O3)[C@H]21 [Lovastatin] | > 10000 | > 10000 | > 10000 | > 10
CCCCNc1ncc(C(=O)NCc2ccc(-n3ccnc3)cc2)c(NC2CCC(O)CC2)n1 (stereo not given) [UNC2881] | 345 | > 2500 | 338 | > 2.5
O=c1cc(N2CCOCC2)oc2c(-c3ccccc3)cccc12 | 7660 | 13700 | 13400 | 18.3
CCc1c2c(nc3ccc(O)cc13)-c1cc3c(c(=O)n1C2)COC(=O)[C@]3(O)CC [SN-38] | 4.63 | 9.22 | 36 | 0.0297
NCCNc1ccc(NCCN)c2c1C(=O)c1ccncc1C2=O [Pixantrone] | 3300 | 3480 | 3000 | > 10
Nc1cc(F)ccc1NC(=O)/C=C/c1cnn(C/C=C/c2ccccc2)c1 [RGFP966] | 1570 | 1750 | 378 | > 10
COc1cc(Nc2ncc(F)c(Nc3ccc4c(n3)N(COP(=O)(O)O)C(=O)C(C)(C)O4)n2)cc(OC)c1OC [Fostamatinib] | 685 | 416 | 514 | > 2.5
CNC(=O)c1ccccc1Nc1nc(Nc2ccc3c(c2OC)CCC[C@H](N2CCN(CCO)CC2)C3)ncc1Cl | 633 | 979 | 155 | 1.09
C[C@@H](Nc1cc(F)cc(F)c1)c1cc(C(=O)N(C)C)cc2c(=O)cc(N3CCOCC3)oc12 [AZD-8186] | 357 | > 1000 | > 1000 | > 1
Cc1c(CN2CCN(C(=O)[C@H](C)O)CC2)sc2c(N3CCOCC3)nc(-c3cnc(N)nc3)nc12 [Apitolisib] | 167 | 732 | 715 | > 10
O=C(Nc1nc2ccccc2n1CCN1CCOCC1)c1cccc([N+](=O)[O-])c1 [IRAK1/4 inhibitor] | > 25000 | > 25000 | > 25000 | > 25
O=C(O)c1ccc2c(c1)nc(Nc1cccc(Cl)c1)c1ccncc12 [Silmitasertib] | 2360 | 3540 | 2580 | > 10
COc1cc2c(Nc3ccc(Cl)c(Cl)c3F)ncnc2cc1OC[C@H]1C[C@@H]2CN(C)C[C@@H]2C1 [XL-647] | 101 | 367 | 406 | > 1
NC(=S)N/N=C/c1ncccc1N [Triapine] | 3880 | 1690 | 2250 | 3.26
CCCCc1nc2cc(/C=C/C(=O)NO)ccc2n1CCN(CC)CC [Pracinostat] | 121 | 429 | 728 | 1.63
CCS(=O)(=O)N1CC(CC#N)(n2cc(-c3ncnc4[nH]ccc34)cn2)C1 [Baricitinib] | > 2500 | > 2500 | > 2500 | > 2.5
CC(=O)N(O)CCCCCNC(=O)CCC(=O)N(O)CCCCCNC(=O)CCC(=O)N(O)CCCCCN [Deferoxamine] | 1970 | 1070 | 1480 | 3.24
N.N.[Cl][Pt][Cl] [Cisplatin] | 5180 | 1170 | 4700 | 2.27
CCNC(=O)c1noc(-c2cc(C(C)C)c(O)cc2O)c1-c1ccc(CN2CCOCC2)cc1 [Luminespib] | 10.3 | 11 | 39.3 | 0.0518
O=c1sn(-c2cccc3ccccc23)c(=O)n1Cc1ccccc1 [Tideglusib] | > 3000 | > 3000 | > 3000 | > 3
CN1CCN(c2cc(C(=O)Nc3ccc4c(c3)-c3c(c(C(N)=O)nn3-c3ccc(F)cc3)CC4)c(Cl)cn2)CC1 [PHA 408] | 3080 | 3280 | 2400 | 3.27
CCS(=O)(=O)N1CCN(c2ccc(Nc3ncc(C(N)=O)c(NC4CC4)n3)cc2)CC1 [Cerdulatinib] | > 10000 | 1880 | 1270 | > 10
O=C1NC(=O)/C(=C/c2ccc3nccc(-c4ccncc4)c3c2)S1 | 1170 | 3380 | 3060 | > 10
